Data published in ChEMBL document CHEMBL1268927, “Antitumor activity of 3,4-dihydroquinazoline dihydrochloride in A549 xenograft nude mice” (Bioorg Med Chem Lett, 2010).

Columns and labels:
[1] = Toxicity in ICR mouse assessed as mortality rate at 1000 mg/kg, po administered as single dose; type: organism-based; set-up: dose 1000 mg/kg, route oral; settings: in vivo, read-out: Activity
[2] = test system: SK-OV-3; test: Cytotoxicity against human SKOV3 cells by MTT assay; type: functional, cell-based
[3] = test system: Mus musculus; test: Toxicity in ICR mouse assessed as occurrence of erosion at 34.6 mg/kg, iv administered as single dose; type: organism-based; set-up: dose 34.6 mg/kg, route intravenous; settings: in vivo
[4] = test system: MDA-MB-231; test: Cytotoxicity against human MDA-MB-231 cells by MTT assay; type: functional, cell-based
[5] = Toxicity in ICR mouse assessed as mortality rate at 250 mg/kg, po administered as single dose; type: organism-based; set-up: dose 250 mg/kg, route oral; settings: in vivo, read-out: Activity
[6] = test system: Mus musculus; test: Toxicity in ICR mouse assessed as appearance of solid perineal region at 500 mg/kg, po administered as single dose; type: organism-based; set-up: dose 500 mg/kg, route oral; settings: in vivo
[7] = Toxicity in iv dosed ICR mouse administered as single dose; type: organism-based; settings: in vivo
[8] = Cmax in Sprague-Dawley rat at 5 mg/kg, iv; type: ADME, organism-based; set-up: dose 5 mg/kg, route intravenous; settings: in vivo
[9] = test system: HeLa; test: Cytotoxicity against human HeLa cells by MTT assay; type: functional, cell-based
[10] = test system: SK-BR-3; test: Cytotoxicity against human SKBR3 cells by MTT assay; type: functional, cell-based
[11] = test system: A549; test: Antitumor activity against human A549 cells xenografted in BALB/c mouse assessed as inhibition of tumor weight at 2 mg/kg, iv QD for 28 days measured post last dose; type: functional; settings: A549, 672 h
[12] = Oral bioavailability in Sprague-Dawley rat at 10 mg/kg; type: ADME, organism-based; settings: in vivo
[13] = AUC in Sprague-Dawley rat at 5 mg/kg, iv; type: ADME, organism-based; set-up: dose 5 mg/kg, route intravenous; settings: plasma
[14] = Mean residence time in Sprague-Dawley rat at 5 mg/kg, iv; type: ADME, organism-based; set-up: dose 5 mg/kg, route intravenous; settings: in vivo
[15] = test system: A549; test: Ratio of compound to doxorubicin activity against human A549 cells xenografted in BALB/c mouse at 2 mg/kg, iv; type: functional
[16] = test system: Mus musculus; test: Toxicity in ICR mouse assessed as occurrence of erosion at 45 mg/kg, iv administered as single dose measured up to 10 mins; type: organism-based; set-up: dose 45 mg/kg, route intravenous; settings: in vivo
[17] = test system: LNCaP; test: Cytotoxicity against human LNCAP cells by MTT assay; type: functional, cell-based
[18] = Toxicity in ICR mouse assessed as mortality rate at 26.6 mg/kg, iv administered as single dose; type: organism-based; set-up: dose 26.6 mg/kg, route intravenous; settings: in vivo, read-out: Activity
[19] = test system: Mus musculus; test: Toxicity in ICR mouse assessed as occurrence of diarrhea at 500 mg/kg, po administered as single dose; type: organism-based; set-up: dose 500 mg/kg, route oral; settings: in vivo
[20] = test system: Mus musculus; test: Toxicity in BALB/c mouse xenografted with human A549 cells assessed as effect on body weight at 1 to 2 mg/kg, iv QD for 28 days measured post last dose; type: organism-based; set-up: dose 1-2 mg/kg, route intravenous; settings: in vivo, 672 h
[21] = Cytotoxicity against human A172 cells by MTT assay; type: functional, cell-based, A 172
[22] = test system: A549; test: Cytotoxicity against human A549 cells by MTT assay; type: functional, cell-based
[23] = Mean residence time in Sprague-Dawley rat at 10 mg/kg, iv; type: ADME, organism-based; set-up: dose 10 mg/kg, route intravenous; settings: in vivo
[24] = test system: Rattus norvegicus; test: Volume of distribution in Sprague-Dawley rat at 5 mg/kg, iv; type: ADME, organism-based; set-up: dose 5 mg/kg, route intravenous; settings: in vivo
[25] = Toxicity in ICR mouse assessed as mortality rate at 500 mg/kg, po administered as single dose; type: organism-based; set-up: dose 500 mg/kg, route oral; settings: in vivo, read-out: Activity
[26] = test system: Mus musculus; test: Toxicity in ICR mouse assessed as occurrence of panting at 34.6 mg/kg, iv administered as single dose; type: organism-based; set-up: dose 34.6 mg/kg, route intravenous; settings: in vivo
[27] = test system: Mus musculus; test: Toxicity in ICR mouse assessed as occurrence of diarrhea at 100 mg/kg, po administered as single dose; type: organism-based; set-up: dose 100 mg/kg, route oral; settings: in vivo
[28] = test system: Mus musculus; test: Toxicity in ICR mouse assessed as occurrence of inanimation at 45 mg/kg, iv administered as single dose measured up to 10 mins; type: organism-based; set-up: dose 45 mg/kg, route intravenous; settings: in vivo
[29] = test system: Mus musculus; test: Toxicity in BALB/c mouse xenografted with human A549 cells assessed as decrease in body weight at 2 mg/kg, iv administered once per 2 days for 4 weeks measured on day 8; type: organism-based; set-up: dose 2 mg/kg, route intravenous; settings: in vivo
[30] = test system: Rattus norvegicus; test: Half life in Sprague-Dawley rat at 10 mg/kg, iv; type: ADME, organism-based; set-up: dose 10 mg/kg, route intravenous; settings: in vivo
[31] = test system: Mus musculus; test: Toxicity in ICR mouse assessed as appearance of clinical signs at 250 mg/kg, po administered as single dose; type: organism-based; set-up: dose 250 mg/kg, route oral; settings: in vivo
[32] = Toxicity in po dosed ICR mouse administered as single dose; type: organism-based; settings: in vivo
[33] = test system: Mus musculus; test: Toxicity in ICR mouse assessed as occurrence of inanimation at 34.6 mg/kg, iv administered as single dose; type: organism-based; set-up: dose 34.6 mg/kg, route intravenous; settings: in vivo
[34] = test system: A549; test: Antitumor activity against human A549 cells xenografted in BALB/c mouse assessed as inhibition of tumor weight at 1 mg/kg, iv QD for 28 days measured post last dose; type: functional; settings: A549, 672 h
[35] = test system: Rattus norvegicus; test: Half life in Sprague-Dawley rat at 5 mg/kg, iv; type: ADME, organism-based; set-up: dose 5 mg/kg, route intravenous; settings: in vivo
[36] = Cmax in Sprague-Dawley rat at 10 mg/kg, iv; type: ADME, organism-based; set-up: dose 10 mg/kg, route intravenous; settings: in vivo
[37] = Toxicity in ICR mouse assessed as mortality rate at 34.6 mg/kg, iv administered as single dose; type: organism-based; set-up: dose 34.6 mg/kg, route intravenous; settings: in vivo, read-out: Activity
[38] = test system: Mus musculus; test: Toxicity in ICR mouse assessed as appearance of solid perineal region at 1000 mg/kg, po administered as single dose; type: organism-based; set-up: dose 1000 mg/kg, route oral; settings: in vivo
[39] = test system: Mus musculus; test: Toxicity in ICR mouse assessed as loss of locomotor activity at 34.6 mg/kg, iv administered as single dose; type: organism-based; set-up: dose 34.6 mg/kg, route intravenous; settings: in vivo
[40] = test system: Rattus norvegicus; test: Volume of distribution in Sprague-Dawley rat at 10 mg/kg, iv; type: ADME, organism-based; set-up: dose 10 mg/kg, route intravenous; settings: in vivo
[41] = test system: Mus musculus; test: Toxicity in ICR mouse assessed as appearance of clinical signs at 26.6 mg/kg, iv administered as single dose; type: organism-based; set-up: dose 26.6 mg/kg, route intravenous; settings: in vivo
[42] = test system: Mus musculus; test: Toxicity in ICR mouse assessed as loss of locomotor activity at 45 mg/kg, iv administered as single dose measured up to 10 mins; type: organism-based; set-up: dose 45 mg/kg, route intravenous; settings: in vivo
[43] = AUC in Sprague-Dawley rat at 10 mg/kg, iv; type: ADME, organism-based; set-up: dose 10 mg/kg, route intravenous; settings: plasma
[44] = Oral bioavailability in Sprague-Dawley rat at 5 mg/kg; type: ADME, organism-based; settings: in vivo
[45] = test system: Mus musculus; test: Toxicity in ICR mouse assessed as occurrence of panting at 45 mg/kg, iv administered as single dose measured up to 10 mins; type: organism-based; set-up: dose 45 mg/kg, route intravenous; settings: in vivo
[46] = test system: A549; test: Antitumor activity against human A549 cells xenografted in BALB/c mouse assessed as inhibition of tumor weight at 2 mg/kg, iv administered once per 2 days for 4 weeks measured post last dose; type: functional
[47] = test system: A549; test: Antitumor activity against human A549 cells xenografted in iv dosed BALB/c mouse assessed as inhibition of tumor weight administered QD for 28 days measured post last dose; type: functional, organism-based

CN(C)CCCCCN(C)C1=Nc2ccccc2C(CC(=O)NCc2ccccc2)N1c1ccc(-c2ccccc2)cc1.Cl.Cl (centres undefined)
mortality [1]: 80% | IC50 ([2]; sk-ov-3): 5.22 µM | Activity [3]: Toxic | IC50 ([4]; mda-mb-231): 1.64 µM | mortality [5]: 0% | Activity [6]: Toxic | LD50 [7]: 40 mg/kg | Cmax [8]: 460 ng/mL | IC50 ([9]; hela): 3.11 µM | IC50 ([10]; sk-br-3): 1.83 µM | inhibition in vivo at 2 mg/kg [11]: 49% | bioavailability [12]: 70.1% | AUC [13]: 128 µg·h/mL | MRT [14]: 5.09 h | Ratio [15]: 1.6 | Activity [16]: Toxic | IC50 ([17]; lncap): 5.19 µM | mortality [18]: 0% | Activity [19]: Toxic | Activity [20]: Non-toxic | IC50 ([21]; a 172): 4.61 µM | IC50 ([22]; a549): 5 µM | MRT [23]: 7.19 h | Vd [24]: 0.33 L/kg | mortality [25]: 40% | Activity [26]: Toxic | Activity [27]: Toxic | Activity [28]: Toxic | Activity [29]: Toxic | t1/2 [30]: 19.8715 h | Activity [31]: Non-toxic | LD50 [32]: 693 mg/kg | Activity [33]: Toxic | inhibition in vivo at 1 mg/kg [34]: 29% | t1/2 [35]: 8.716 h | Cmax [36]: 1030 ng/mL | mortality [37]: 20% | Activity [38]: Toxic | Activity [39]: Toxic | Vd [40]: 0.61 L/kg | Activity [41]: Toxic | Activity [42]: Toxic | AUC [43]: 279 µg·h/mL | bioavailability [44]: 98.3% | Activity [45]: Toxic

CN(C)CCCCCN(C)C1=Nc2ccccc2C(CC(=O)NCc2ccccc2)N1c1ccc(-c2ccccc2)cc1 (centres undefined) [listing 1 of 2 here]
IC50 ([2]; Homo sapiens, SK-OV-3): 5 µM | IC50 ([4]; Homo sapiens, MDA-MB-231): 2.65 µM | IC50 ([9]; Homo sapiens, HeLa): 4.04 µM | IC50 ([10]; Homo sapiens, SK-BR-3): 2.17 µM | IC50 ([17]; Homo sapiens, LNCaP): 4.7 µM | IC50 ([21]; Homo sapiens, A 172): 4.83 µM | IC50 ([22]; Homo sapiens, A549): 5.17 µM

COc1cccc2c1C(=O)c1c(O)c3c(c(O)c1C2=O)C[C@@](O)(C(=O)CO)C[C@@H]3O[C@H]1C[C@H](N)[C@H](O)[C@H](C)O1 [DOXORUBICIN]
inhibition in vivo at 2 mg/kg [46]: 30%

CN(C)CCCCCN(C)C1=Nc2ccccc2C(CC(=O)NCc2ccccc2)N1c1ccc(-c2ccccc2)cc1 (centres undefined) [listing 2 of 2 here]
inhibition [47]: Dose-dependent effect
